Measured values taken from patent EP0012729A1, “Therapeutic compositions containing as active compound a substituted acetic acid or its salt” ("IBIS" ISTITUTO BIOCHIMICO SPERIMENTALE S.p.A., priority 1978, dated 1980).

Tested on: Wistar rats
Assay: Choleretic activity in the rat, bile fistula method
Type: in vivo
Details: for Peak choleresis time of appearance / Peak choleresis % increase / Duration index: 200 mg/kg p.o. (dose given for 1620 only); for Peak choleresis % increase: increase over controls as percentage of base choleresis; for Duration index: time for halving the maximum choleresis increase; for Flow: 200 mg/kg p.o.; for ml of bile flow ± s.e.: second series
Source text: It is known that the primary effect of a choleretic agent is to increase the bile flow and the quantity of solid substances excreted with the bile. A good choleretic must provide this effect in a sufficiently intense and prolonged manner. In addition, as in the case of all drugs, it must have low acute toxicity and good general tolerability, but in particular must be free from toxic effects on the organ on which it is required to act, i.e. the liver, whether this is in a normal or pathological state. The analysis of the new product in comparison with the best known products for the same therapeutic use has therefore been focused on these aspects. The choleretic activity of the new product has been determined in the rat by using the bile fistula method. Wistar rats of both sexes and having a weight of between 180 and 240 g were used.
The animals, which were kept fasting for 12 hours but with free access to water, were narcotised by ethyl urethane in a dose of 1 g/kg by intra peritoneal or intramuscular injection.
After binding the animals to the retention bed, a median laparatomy was carried out, and when the bile duct had been isolated a cannula needle was inserted into it. A polythene tube was then inserted into those ani mals which were to receive the products intraduodenally, after which a su ture was carried out on the abdominal wall, and the bile was allowed to discharge for 30 minutes after inserting the cannula in the bile duct, so as to allow the discharge to become normal. The bile was then collec ted for one hour.
Having determined the volume of bile discharged during this first hour of collection (base volume), the products under examination were administered at the predetermined doses and by the predetermined methods. The bile excreted by the individual animals was then collected over each hour for a further six hours.
During the experiments, the animals were kept at ambient temperature of about 22°C, and at regular intervals of two hours received 10 ml/kg of physiological solution s.c.
The liquids were administered at a temperature of 37°C.
The bile flow and cholesterol excretion were determined on those bile fractions excreted by the animals over each hour starting from the base hour until the end of the experiment
The dry residue (R.So) was determined on the bile fraction excreted during the base hour and on the total bile fractions excreted during the sub sequent hours. For practical reasons, the determination of the dry residue and of the cholesterol (carried out by the Sperry & Webb method) were carried out on the pool of bile excreted by the entire group of animals subjected to the same treatment instead of on the bile fractions excreted by the individual animals (which was sometimes insufficient for determining the cholesterol).
In compiling the graphs, the differences between the choleresis in the treated animals and that in the controls was calculated over the considered time intervals, and expressed as a percentage of the base choleresis. For this calculation, the following formula was used: [formula] where Cn and C' represent the choleresis (in ml/kg/h for the bile flow, and in mg/kg/h for the dry residue) determined over the considered time interval for the group of treated animals and the group of controls respectively. Cb and C'b represent the base choleresis in the group of treated animals and group of controls respectively.
This index was calculated as the time for halving the maximum choleresis increase recorded under their effect.

Molecule | Peak choleresis time of appearance | Peak choleresis % increase | Duration index | Flow (0 (base hour)) | Flow (1h) | Flow (2h) | Flow (3h) | Flow (4h) | Flow (5h) | Flow (6h) | other results
CCC(C(=O)O)C1(O)CCC(c2ccccc2)CC1 (stereo not drawn) [α-(1-hydroxy--4-phenylcyclohexyl)butyric acid] | 1st hour | 105% | 180' | 2,70±0,25 ml/kg/h | 5,60±0,51 ml/kg/h | 5,42±0,47 ml/kg/h | 4,63±0,28 ml/kg/h | 3,68±0,18 ml/kg/h | 3,05±0,12 ml/kg/h | 2,70±0,17 ml/kg/h | ml of bile flow ± s.e. (oral by gastric probe 50 mg/kg, 0 (base values)): 2,8±0,22 ml; ml of bile flow ± s.e. (oral by gastric probe 50 mg/kg, 1 h): 3,2±0,11 ml; ml of bile flow ± s.e. (oral by gastric probe 50 mg/kg, 2 h): 3,0±0,12 ml; ml of bile flow ± s.e. (oral by gastric probe 50 mg/kg, 3 h): 2,9±0,10 ml; ml of bile flow ± s.e. (oral by gastric probe 50 mg/kg, 4 h): 2,8±0,12 ml; ml of bile flow ± s.e. (oral by gastric probe 50 mg/kg, 5 h): 2,5±0,10 ml; ml of bile flow ± s.e. (oral by gastric probe 50 mg/kg, 6 h): 2,0±0,11 ml; ml of bile flow ± s.e. (oral by gastric probe 100 mg/kg, 0 (base values)): 2,6±0,17 ml; ml of bile flow ± s.e. (oral by gastric probe 100 mg/kg, 1 h): 3,7±0,13 ml; ml of bile flow ± s.e. (oral by gastric probe 100 mg/kg, 2 h): 3,6±0,14 ml; ml of bile flow ± s.e. (oral by gastric probe 100 mg/kg, 3 h): 3,4±0,11 ml; ml of bile flow ± s.e. (oral by gastric probe 100 mg/kg, 4 h): 3,0±0,11 ml; ml of bile flow ± s.e. (oral by gastric probe 100 mg/kg, 5 h): 2,9±0,13 ml; ml of bile flow ± s.e. (oral by gastric probe 100 mg/kg, 6 h): 2,1±0,13 ml
dihydroxybutylether [Dihydroxydibutyl-ether] | 1st hour | 49% | 45' | 3,36±0,19 ml/kg/h | 5,10±0,23 ml/kg/h | 3,79±0,18 ml/kg/h | 3,08±0,15 ml/kg/h | 2,68±0,15 ml/kg/h | 1,97±0,05 ml/kg/h | 1,77±0,11 ml/kg/h | 
